Values joined by “and” are separate entries in the source; they are usually repeats but may differ in a detail not shown here. Equal entries are not always repeated. Marks after values point to notes of the source that are not given here.
Test system: patients suffering from Alzheimer's disease
Test: Clinical trial of dimebon tablets, inventors' scale (E. E. Bukatina et al.; 0 = absence of a symptom, 4 = greatest manifestation)
Assay type: in vivo, human
Conditions: for Degree of irritability, M +/− m: mean of 7 patients having this symptom; for Values of cognitive functions, M +/− m: mean of 7 patients with unprofound dementia; for Marked depressive manifestation, M +/− m: mean of 8 patients with evident depression prior to treatment; for Intensity of headache, M +/− m: mean of 10 patients having this symptom; for number of patients with abatement or complete cessation of headaches / share of patients with abatement or complete cessation of headaches: of 10 patients
Description: The test was carried out under the direct supervision by two of the inventors, namely E. E. Bukatina and V. Grigorieva, in 14 patients who agreed to take part in the tests, 13 of whom lived in a boarding house for senile persons and one patient lived with their family.
Alzheimer's disease was diagnosed on the basis of criteria ICD-10 NINCDS ADRDA.
Dimebon in the form of tablets (comprising 10 mg of dimebon, 30 mg of lactose, 5 mg of magnesium stearate was prescribed for oral administration in a dose of 0.02 g three to times a day. The patients living in the boarding house received dimebon for 58 days. A patient (observation 14) who was under outpatient observation continued taking the agent for a month after the completion of the tests.
Before the treatment with dimebon, and at 4 and 8 weeks after treatment the patients were examined according to Hazegawa's scale and the inventors' scale (“Social and Clinical Psychiatry”, 1992, No.4, pp.29–37) which includes the following indexes: (1) orientation in locality, time, immediate surroundings and one's own personality; (2) orientation in space; (3) memory for the past; (4) memory for the present; (5) “life in the past”; (6) (a) articulation, (b) difficulty in finding words, and distortion of words; (c) naming of objects; (d) following instructions; (7) concentration (of attention); (8) an affective sphere; (a) high spirits, (b) low spirits; (9) delirium; (10) hearing hallucinations; (11) visual hallucinations; (12) senile or senile-like confusion (when motion anxiety is accompanied by the revival of the past experience); (13) irritability; (14) anxiety; (15) asthenia; (16) headaches; (17) dizziness; (18) tearfulness; (19) spontaneous activity; (20) elementary self-service; and (21 control of sphincters.
According to the Hazegawa's scale, the 0 score indicates the poorest result; on the contrary, according to the inventors' scale, the 0 score indicates the absence of a symptom 4 score indicates the greatest manifestation thereof. […] Before the therapy was started, the patients had been independently examined by two doctors who used the inventors' scale. The examination during the treatment was carried out by the doctors using both the scales. The evaluation according to all the inventors' scale points during all the tests and their variations during the treatment with dimebon are given in the Appendix.
According to the inventors' scale, the degree of the disturbance if the cognitive functions was determined by a sum of evaluations according to the first 5 scale points reflecting the condition of memory, orientation and relation with the reality. The disturbance of speech was dealt with separately and was determined by a sum of evaluations according to items 6b-6d.
Both absolute evaluations of the signs under investigation (the evaluation prior to treatment is a mean evaluation of the two examinations) and variations in them were analysed in the course of therapy. In doing so, only those changes that were beyond the range of evaluations obtained in two pre-treatment examinations were taken into consideration.
The test results reflected the condition of the patients at the time of the examination. Any changes in the metal state observed in the interval between the tests and disappearing by the moment of examination according to the scale were described in the section “Clinical Observations”.
The statistical data processing was carried out by means of Student's t-test and Fisher's “Fi” criterion.

[1] = change at 8 weeks vs K1, K2, per patient, listed as dimebon
[2] = marked (by more than 1 score), 8 weeks
[3] = mean of 14 patients, after 4 weeks
[4] = mean of 14 patients, after 8 weeks
[5] = of 11 patients with depressive symptoms prior to treatment, 4 weeks
[6] = of 11 patients with depressive symptoms prior to treatment, 8 weeks
[7] = score after 4 weeks, per patient, listed as dimebon
[8] = score after 8 weeks, per patient, listed as dimebon

## Cc1ccc2c(c1)c1c(n2CCc2ccc(C)nc2)CCN(C)C1 [No. 10, 2,8-dimethyl-5-[2-(6-methyl-3-pyridyl)ethyl]-2,3,4,5-tetrahydro-1H-pyrido[4,3-b]indole]
[1]
  2. Orientation in space, Changes (8 weeks): +1 and +0.5
  4. Memory for the present, Changes (8 weeks): −0.5 (2×) and +1 and +0.5 (4×)
  5. Life in the past, Changes (8 weeks): +0.5 (4×) and +1 (2×)
  6b. Difficulty in finding words, Changes (8 weeks): 0 and −0.5
  6c. Naming of objects, Changes (8 weeks): +0.5 (3×) and +1
  7. Concentration, Changes (8 weeks): −0.5 (2×) and +0.5
  8b. Lower spirits, Changes (8 weeks): +1.5 and +1 (3×) and +2 and −1 and +0.5 and −5
  9. Delirium, Changes (8 weeks): +1.5 and 0 (2×) and +2
  13. Irritability, Changes (8 weeks): +1.5 and +1 (2×) and −1.5 and 0
  14. Anxiety, Changes (8 weeks): +0.5 and +1 and −0.5
  16. Headache, Changes (8 weeks): +0.5 and +2 and +1.5 and −1
  17. Dizziness, Changes (8 weeks): 1 and −2 (2×) and +1 (2×) and −0.5
  18. Tearfulness, Changes (8 weeks): +1 and +2
  19. Spontaneous activity, Changes (8 weeks): +1 and 0 (3×) and −1
  20. Elementary self-service, Changes (8 weeks): +1 and −1
  6d. Performing instructions, Changes (8 weeks): −1.5 and −1 (2×) and +0.5 and +1 (2×) and 0
During treatment
  aggravation or emergence of irritability: Not a single observation
  first emergence of delirium: not a single case
[2]
  Speech functions (items 6b, c, d): deteriorations, %: 2.4%
  Speech functions (items 6b, c, d): deteriorations, abs.: 1
After 4 weeks
  Degree of irritability, M +/− m: 0.43 +/− 0.28 scores
  Values of cognitive functions, M +/− m: 5.5 +/− 0.79 score
  Marked depressive manifestation, M +/− m: 0.69 +/− 0.23 scores
  Intensity of headache, M +/− m: 0.45 +/− 0.29 scores
  number of patients with abatement or complete cessation of headaches: Five
  share of patients with abatement or complete cessation of headaches: 50%
After 8 weeks
  Degree of irritability, M +/− m: 0.29 +/− 5.17 scores
  Values of cognitive functions, M +/− m: 3.93 +/− 0.5 score
  Marked depressive manifestation, M +/− m: 0.69 +/− 0.18 scores
  Intensity of headache, M +/− m: 0.9 +/− 0.31 scores
  number of patients with abatement or complete cessation of headaches: 3 patients
  share of patients with abatement or complete cessation of headaches: 30%
Mean of 7 patients with unprofound (mild) dementia, 4 weeks, listed as Demibon
  Variations of cognitive function, M +/− m: +0.5 +/− 0.14 score
Mean of 7 patients with unprofound (mild) dementia, 4 weeks, listed as dimebon
  Variations of cognitive function, M +/− m: 0.5±0.14 score
Mean of 7 patients with unprofound (mild) dementia, 8 weeks
  Variations of cognitive function, M +/− m: +1.79 +/− 0.35 score
Mean of 14 patients, 4 weeks
  Variations of cognitive function, M +/− m: −0.43 +/− 0.15 score
  Variations of speech function, M +/− m: −0.18 +/− 0.14
Mean of 14 patients, 8 weeks
  Variations of cognitive function, M +/− m: +1.14 +/− 0.26 score
  Variations of speech function, M +/− m: −0.04 +/− 0.22
[3]
  Evaluation of speech function, M +/− m: 1.61 +/− 0.44 scores
  Values of cognitive function (sum of first 5 scale points), M +/− m: 8.32 +/− 0.93 score
[4]
  Evaluation of speech function, M +/− m: 1.39 +/− 0.47 scores
  Values of cognitive function (sum of first 5 scale points), M +/− m: 7.21 +/− 0.82 score
Moderate (by 1 score), 4 weeks
  Cognitive functions (first 5 scale points): improvements, %: 5.7%
  Cognitive functions (first 5 scale points): improvements, abs.: 4
  Speech functions (items 6b, c, d): deteriorations, %: 2.4%
  Speech functions (items 6b, c, d): deteriorations, abs.: 1
  Speech functions (items 6b, c, d): improvements, %: 7.14%
  Speech functions (items 6b, c, d): improvements, abs.: 3
Moderate (by 1 score), 8 weeks
  Cognitive functions (first 5 scale points): improvements, %: 8.6%
  Cognitive functions (first 5 scale points): improvements, abs.: 6
  Speech functions (items 6b, c, d): deteriorations, %: 4.8%
  Speech functions (items 6b, c, d): deteriorations, abs.: 2
  Speech functions (items 6b, c, d): improvements, %: 7.1%
  Speech functions (items 6b, c, d): improvements, abs.: 3
Of 5 patients with tearfulness prior to treatment, after four weeks
  number of patients showing no signs of tearfulness: 4 patients
[5]
  number of patients in whom the depression abated: 5 patients
  share of patients in whom the depression abated: 45%
[6]
  number of patients with improvement of depression: 6 patients
  share of patients with improvement of depression: 55%
[7]
  2. Orientation in space, 4 weeks: 0 (10×) and 1 and 1.5 (2×) and 0.5
  4. Memory for the present, 4 weeks: 1.5 and 2 (4×) and 1 (3×) and 3 (5×) and 3.5
  5. Life in the past, 4 weeks: 1 (2×) and 1.5 (2×) and 0.5 (2×) and 2.5 (3×) and 2 (4×) and 3
  6b. Difficulty in finding words, 4 weeks: 0 (9×) and 1 (2×) and 1.5 and 0.5 and 2
  6c. Naming of objects, 4 weeks: 0 (7×) and 1 (4×) and 2 (3×)
  7. Concentration, 4 weeks: 1.5 (2×) and 0 and 1 (3×) and 3 (4×) and 2 (3×) and 0.5
  8b. Lower spirits, 4 weeks: 1 (4×) and 0 (7×) and 0.5 (2×) and 2
  9. Delirium, 4 weeks: 0 (9×) and 1 (2×) and 2.5 and 1.5 and 2
  13. Irritability, 4 weeks: 0 (12×) and 2 and 1
  14. Anxiety, 4 weeks: 0 (10×) and 1 (4×)
  15. Asthenia, 4 weeks: 0 (11×) and 1 (2×) and 0.5
  16. Headache, 4 weeks: 0.5 and 0 (11×) and 1 and 3
  17. Dizziness, 4 weeks: 0.5 and 0 (8×) and 1 (2×) and 2 and 2.5 and 3
  18. Tearfulness, 4 weeks: 1 and 0 (13×)
  19. Spontaneous activity, 4 weeks: 1.5 and 1 (5×) and 0.5 and 2 (4×) and 0 (2×) and 3
  20. Elementary self-service, 4 weeks: 0 (13×) and 1
  6d. Performing instructions, 4 weeks: 1 (4×) and 0 (8×) and 0.5 and 2
Score after 8 weeks of treatment, per patient, listed as dimebon
  1. Orientation in locality and time, 8 weeks: 2 (4×) and 3 (2×) and 1.5 (2×) and 0 and 0.5 (2×) and 1 (2×)
Score after 8 weeks, per patient
  18. Tearfulness, 8 weeks: 0
[8]
  2. Orientation in space, 8 weeks: 0 (11×) and 1.5 and 1
  4. Memory for the present, 8 weeks: 1 (4×) and 0.5 and 1.5 (2×) and 3 (4×) and 2 (2×) and 2.5
  5. Life in the past, 8 weeks: 0.5 (5×) and 1 (2×) and 3 (3×) and 1.5 and 2.5 (2×) and 2
  6b. Difficulty in finding words, 8 weeks: 0 (11×) and 1.5 and 2 (2×)
  6c. Naming of objects, 8 weeks: 0 (9×) and 1 (2×) and 2 (2×) and 1.5
  7. Concentration, 8 weeks: 1 (5×) and 0 and 3 and 2 (3×) and 3.5 and 2.5 and 4 and 0.5
  8b. Lower spirits, 8 weeks: 0.5 (2×) and 0 (7×) and 1 (4×) and 1.5
  9. Delirium, 8 weeks: 0 (9×) and 1.5 (2×) and 1 (2×) and 2
  13. Irritability, 8 weeks: 0 (12×) and +1 and 1
  14. Anxiety, 8 weeks: 0 (11×) and 1 (2×) and 0.5
  15. Asthenia, 8 weeks: 0 (13×) and 0.5
  16. Headache, 8 weeks: 0 (8×) and 1 (2×) and 2 and 1.5 and 0.5 and 3
  17. Dizziness, 8 weeks: 0 (8×) and 1.5 and 3 and 2 and 1 (3×)
  19. Spontaneous activity, 8 weeks: 1 (7×) and 1.5 and 0 (3×) and 2 (2×) and 4
  20. Elementary self-service, 8 weeks: 0 (13×) and 2
  6d. Performing instructions, 8 weeks: 1 (5×) and 2.5 and 0 (8×)
Slight (by 0.5 score), 4 weeks
  Cognitive functions (first 5 scale points): improvements, %: 5.7* %
  Cognitive functions (first 5 scale points): improvements, abs.: 4*
  Speech functions (items 6b, c, d): improvements, %: 2.4%
  Speech functions (items 6b, c, d): improvements, abs.: 1
Slight (by 0.5 score), 8 weeks
  Cognitive functions (first 5 scale points): improvements, %: 25.7* %
  Cognitive functions (first 5 scale points): improvements, abs.: 18*
  Speech functions (items 6b, c, d): deteriorations, %: 2.4%
  Speech functions (items 6b, c, d): deteriorations, abs.: 1
  Speech functions (items 6b, c, d): improvements, %: 7.14%
  Speech functions (items 6b, c, d): improvements, abs.: 3
total, 4 weeks
  Cognitive functions (first 5 scale points): improvements, %: 11.4%
  Cognitive functions (first 5 scale points): improvements, abs.: 8
  Speech functions (items 6b, c, d): deteriorations, %: 2.4%
  Speech functions (items 6b, c, d): deteriorations, abs.: 1
  Speech functions (items 6b, c, d): improvements, %: 9.5%
  Speech functions (items 6b, c, d): improvements, abs.: 4
total, 8 weeks
  Cognitive functions (first 5 scale points): improvements, %: 34.3%
  Cognitive functions (first 5 scale points): improvements, abs.: 24
  Speech functions (items 6b, c, d): deteriorations, %: 9.6%
  Speech functions (items 6b, c, d): deteriorations, abs.: 4
  Speech functions (items 6b, c, d): improvements, %: 14.3%
  Speech functions (items 6b, c, d): improvements, abs.: 6
Whole period of investigations, all patients
  Item 10. hearing hallucinations: Item 10. No hearing hallucinations were observed throught the whole period of investigations.

From patent US7071206B2, “Agents for treating neurodegenerative disorders” (Medivation, Inc., priority 1995, dated 2006)
